What was measured:
[1] = biological target: Estrogen receptor beta (Homo sapiens, UniProt Q92731); conditions: sf9; also: in other assays of this panel Not Active means under 50% inhibition at 10 µM
[2] = DRUGMATRIX: Purinergic P2X radioligand binding (ligand: [3H] alpha, beta-Methylene-ATP); format: cell membranes, Oryctolagus cuniculus, New Zealand albino, Urinary bladder, Membrane; conditions: Not Active = under 50% inhibition at 10 µM
[3] = biological target: T1, Muscarinic acetylcholine receptor M5 (Homo sapiens, UniProt P08912); format: cell membranes, CHO-K1, Membrane; conditions: cho-k1; also: in other assays of this panel Not Active means under 50% inhibition at 10 µM
T1 sequence (P08912 whole entry): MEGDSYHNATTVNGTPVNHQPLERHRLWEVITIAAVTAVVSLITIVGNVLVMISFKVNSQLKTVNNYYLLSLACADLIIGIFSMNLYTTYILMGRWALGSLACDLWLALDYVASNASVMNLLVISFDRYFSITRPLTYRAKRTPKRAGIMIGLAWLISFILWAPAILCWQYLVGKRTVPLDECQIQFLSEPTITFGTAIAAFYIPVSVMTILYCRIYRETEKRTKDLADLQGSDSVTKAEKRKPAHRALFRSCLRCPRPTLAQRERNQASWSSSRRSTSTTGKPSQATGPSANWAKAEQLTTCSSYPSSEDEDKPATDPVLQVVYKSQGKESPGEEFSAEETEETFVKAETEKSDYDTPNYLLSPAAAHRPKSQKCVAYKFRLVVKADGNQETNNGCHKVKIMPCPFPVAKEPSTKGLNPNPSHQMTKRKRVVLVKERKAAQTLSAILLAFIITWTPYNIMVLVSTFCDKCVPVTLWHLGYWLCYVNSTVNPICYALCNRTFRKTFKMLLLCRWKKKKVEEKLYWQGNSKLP

[4] = biological target: Cytochrome P450 2C19 (Homo sapiens, UniProt P33261); conditions: bti-tn-5b1-4; also: in other assays of this panel Not Active means under 50% inhibition at 10 µM
[5] = biological target: Melanocortin receptor 4 (Homo sapiens, UniProt P32245); format: cell membranes, HEK293, Membrane; conditions: hek293; also: in other assays of this panel Not Active means under 50% inhibition at 10 µM
[6] = biological target: T2, Alpha-1B adrenergic receptor (Rattus norvegicus, UniProt P15823); assay: DRUGMATRIX: Alpha-1B adrenergic receptor radioligand binding (ligand: prazosin); format: cell membranes, Wistar, Liver, Membrane; conditions: Not Active = under 50% inhibition at 10 µM
T2 sequence (P15823 whole entry): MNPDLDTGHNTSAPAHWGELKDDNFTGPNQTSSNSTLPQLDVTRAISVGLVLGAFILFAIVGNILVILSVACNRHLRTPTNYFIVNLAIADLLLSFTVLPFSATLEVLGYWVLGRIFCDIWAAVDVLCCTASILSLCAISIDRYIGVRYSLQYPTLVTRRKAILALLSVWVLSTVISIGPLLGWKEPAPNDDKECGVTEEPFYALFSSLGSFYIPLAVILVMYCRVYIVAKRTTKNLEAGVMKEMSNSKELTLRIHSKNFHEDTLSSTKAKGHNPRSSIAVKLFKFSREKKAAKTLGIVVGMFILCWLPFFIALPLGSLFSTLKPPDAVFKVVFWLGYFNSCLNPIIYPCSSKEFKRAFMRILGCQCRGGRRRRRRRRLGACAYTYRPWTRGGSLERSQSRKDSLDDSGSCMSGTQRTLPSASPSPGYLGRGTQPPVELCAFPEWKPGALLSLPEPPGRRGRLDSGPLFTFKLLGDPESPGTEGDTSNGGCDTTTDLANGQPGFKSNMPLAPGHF

[7] = biological target: T3, Muscarinic acetylcholine receptor M2 (Homo sapiens, UniProt P08172); format: cell membranes, CHO-K1, Membrane; conditions: cho-k1; also: in other assays of this panel Not Active means under 50% inhibition at 10 µM
T3 sequence (P08172 whole entry): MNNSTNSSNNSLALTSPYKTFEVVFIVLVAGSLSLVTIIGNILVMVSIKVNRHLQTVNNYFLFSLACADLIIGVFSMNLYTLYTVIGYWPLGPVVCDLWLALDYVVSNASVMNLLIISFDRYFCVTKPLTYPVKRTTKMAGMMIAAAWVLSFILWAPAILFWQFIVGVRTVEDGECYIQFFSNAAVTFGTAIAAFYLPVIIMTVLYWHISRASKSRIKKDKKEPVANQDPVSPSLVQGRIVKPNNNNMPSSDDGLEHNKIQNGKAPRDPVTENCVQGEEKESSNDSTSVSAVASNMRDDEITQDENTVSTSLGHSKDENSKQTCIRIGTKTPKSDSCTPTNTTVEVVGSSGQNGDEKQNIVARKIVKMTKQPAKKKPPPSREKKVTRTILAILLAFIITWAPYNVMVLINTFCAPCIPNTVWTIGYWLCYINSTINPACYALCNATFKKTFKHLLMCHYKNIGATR

Chain of Cytochrome P450 2C19 (P33261 whole entry): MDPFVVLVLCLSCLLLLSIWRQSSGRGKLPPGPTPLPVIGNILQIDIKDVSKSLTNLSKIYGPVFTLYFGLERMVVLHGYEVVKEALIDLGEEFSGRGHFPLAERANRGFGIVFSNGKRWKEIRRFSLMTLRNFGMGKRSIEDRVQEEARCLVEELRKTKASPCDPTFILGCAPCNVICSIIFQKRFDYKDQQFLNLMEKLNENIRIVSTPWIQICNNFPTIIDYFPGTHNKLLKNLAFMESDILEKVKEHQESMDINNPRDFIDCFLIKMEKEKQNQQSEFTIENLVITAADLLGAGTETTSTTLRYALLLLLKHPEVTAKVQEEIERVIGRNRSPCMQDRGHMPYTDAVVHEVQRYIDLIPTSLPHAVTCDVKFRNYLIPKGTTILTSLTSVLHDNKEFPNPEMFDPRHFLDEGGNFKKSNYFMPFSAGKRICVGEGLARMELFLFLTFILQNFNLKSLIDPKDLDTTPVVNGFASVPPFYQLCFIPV
Chain of Melanocortin receptor 4 (P32245 whole entry): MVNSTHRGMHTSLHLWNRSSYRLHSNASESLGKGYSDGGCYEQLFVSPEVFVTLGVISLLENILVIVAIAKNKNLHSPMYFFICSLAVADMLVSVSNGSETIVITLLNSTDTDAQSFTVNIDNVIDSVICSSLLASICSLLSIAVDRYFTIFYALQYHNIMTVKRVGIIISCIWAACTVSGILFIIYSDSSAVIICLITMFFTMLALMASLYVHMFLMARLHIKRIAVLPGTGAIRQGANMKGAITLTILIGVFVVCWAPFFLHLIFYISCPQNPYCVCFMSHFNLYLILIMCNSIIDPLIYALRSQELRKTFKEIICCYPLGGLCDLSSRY
Chain of Estrogen receptor beta (Q92731 whole entry): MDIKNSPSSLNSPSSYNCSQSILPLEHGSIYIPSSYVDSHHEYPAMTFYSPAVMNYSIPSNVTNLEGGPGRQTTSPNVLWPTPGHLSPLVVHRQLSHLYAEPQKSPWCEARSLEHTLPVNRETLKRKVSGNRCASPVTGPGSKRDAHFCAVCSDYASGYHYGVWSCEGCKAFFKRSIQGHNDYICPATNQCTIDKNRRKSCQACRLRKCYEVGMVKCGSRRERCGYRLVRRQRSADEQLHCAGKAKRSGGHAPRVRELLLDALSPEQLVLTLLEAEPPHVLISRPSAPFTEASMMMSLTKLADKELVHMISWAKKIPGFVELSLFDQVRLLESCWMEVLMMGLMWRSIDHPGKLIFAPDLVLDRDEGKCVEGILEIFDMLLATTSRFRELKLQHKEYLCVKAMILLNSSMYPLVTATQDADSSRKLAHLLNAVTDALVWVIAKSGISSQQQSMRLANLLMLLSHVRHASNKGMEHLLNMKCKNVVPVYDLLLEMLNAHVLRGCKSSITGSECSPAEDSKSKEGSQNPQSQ

Cc1oncc1C(=O)Nc1ccc(C(F)(F)F)cc1 [LEFLUNOMIDE]
Not Active: IC50 [1] | IC50 [2] | Ki [2] | IC50 [3] | IC50 [4] | Ki [4] | IC50 [5] | IC50 [6] | IC50 [7]

N#CC(C#N)=Cc1ccc(O)c(O)c1 [TYRPHOSTIN 23]
Not Active: IC50 [1] | IC50 [2] | Ki [2] | IC50 [3] | IC50 [4] | Ki [4] | IC50 [5] | IC50 [6] | IC50 [7]

— ChEMBL document CHEMBL1909046, “DrugMatrix in vitro pharmacology data”
